Results on two compounds are retold here after patent publication US20200045969A1, “Fungicidal Composition and Fungicide for Controlling Asparagus Stem Blight” (Institute of Plant Protection, Jiangxi Academy of …, priority 2018, published 2020).

In the experiment the test system is Phomopsis asparagi (Sacc.). Put plainly: laboratory toxicity, mycelium growth rate method. In kind it is cell-based. Particulars: for ATI (actually-determined toxicity index): (EC50 of standard agent/EC50 of agent to be tested)×100, difenoconazole = 100; for EC50: Phomopsis asparagi, pathogenic fungi of asparagus stem blight collected from the field. As to the method: According to Sun Yunpei method, the synergistic effect of the mixed drug was evaluated based on a cotoxicity coefficient (CTC). […] The subjects to be tested were pathogenic fungi of asparagus stem blight collected from the field. The determination method was conducted with reference to the mycelium growth rate method in “Technical regulation on agricultural construction project acceptance NY/T 1156.6-2006 of the People's Republic of China”.

`CC1COC(Cn2cncn2)(c2ccc(Oc3ccc(Cl)cc3)cc2Cl)O1` (stereo not shown) [difenoconazole]: the “ATI (actually-determined toxicity index)” value came to 100.00 and the 50% effective concentration (EC50) (in general, the concentration giving half of the maximal effect) turned out to be 0.088 µg/mL.

For `N=C(N)c1ccc(OCCCOc2ccc(C(=N)N)cc2)cc1` [propamidine], the “ATI (actually-determined toxicity index)” value is recorded as 166.04 and the EC50 was 0.053 µg/mL.
